Reference: US8829029B2, “Dual modulators of 5HT2A and D3 receptors” (Hoffmann-La Roche Inc., priority 2008, dated 2014)

What was measured:
[1] = biological target: human D3 dopamine receptor (Homo sapiens (Human), UniProt P35462); experiment: Radioligand binding ([3H]-spiperone) to cloned human D3 receptor expressed in HEK-293 EBNA cells; conditions: membranes of transfected HEK-293 EBNA cells, 0.5 nM [3H]-spiperone, 1 h at RT
Outline: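 Membranes from HEK-293 EBNA cells transiently transfected with human D3 receptor, incubated 1 h at RT with ~0.5 nM [3H]-spiperone and ten compound concentrations (10 μM-0.1 nM); nonspecific binding with 10 μM spiperone. Filtered, scintillation counted; IC50 from four-parameter fit, Ki via Cheng-Prusoff using saturation Kd.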

[2] = biological target: human 5-HT2A serotonin receptor (Homo sapiens (Human), UniProt P28223); experiment: Radioligand binding ([3H]-ketanserin) to cloned human 5-HT2A receptor expressed in HEK-293 EBNA cells; conditions: membranes of transfected HEK-293 EBNA cells, 1.1 nM [3H]-ketanserin, 1 h at RT
Outline: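 Membranes from transiently transfected HEK-293 EBNA cells incubated 1 h at RT with 1.1 nM [3H]-ketanserin (5-HT2A, 15 μg protein/well, Tris/MgCl2/EGTA pH 7.4) or 0.5 nM [3H]-spiperone (D3, 7.5 μg/well, Tris/NaCl/MgCl2/KCl/CaCl2 pH 7.4) plus test compound at 10 μM-0.1 nM. Nonspecific binding with 10 μM spiperone; filtration, Ki via Cheng-Prusoff.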

human D3 dopamine receptor, sequence (P35462 whole entry): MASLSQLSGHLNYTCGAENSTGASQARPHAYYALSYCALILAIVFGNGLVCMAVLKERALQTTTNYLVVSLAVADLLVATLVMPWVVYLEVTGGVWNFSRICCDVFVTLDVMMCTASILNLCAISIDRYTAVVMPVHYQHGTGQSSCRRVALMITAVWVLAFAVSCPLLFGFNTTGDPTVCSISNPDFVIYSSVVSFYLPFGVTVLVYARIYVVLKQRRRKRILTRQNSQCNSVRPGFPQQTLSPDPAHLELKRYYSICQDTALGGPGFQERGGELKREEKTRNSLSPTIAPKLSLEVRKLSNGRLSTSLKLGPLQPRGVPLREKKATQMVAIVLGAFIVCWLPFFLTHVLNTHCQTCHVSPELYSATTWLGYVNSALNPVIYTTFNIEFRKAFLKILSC

Work on `COc1cc(CC(=O)N[C@H]2CC[C@H](CCN3CCC(c4noc5cc(F)ccc45)CC3)CC2)cc(OC)c1` [Example 21, 2-(3,5-Dimethoxy-phenyl)-N-trans (4-{2-[4-(6-fluoro-benzo[d]isoxazol-3-yl)-piperidin-1-yl]-ethyl}-cyclohexyl)-acetamide] yielded a Ki [1] of 8.77 nM and a Ki [2] of 2.95 nM.
